Experimental data: the NIST ThermoML archive (doi:10.1021/je049878m)
Numbers after ± are expanded uncertainties.

Conditions: Crystal

| SMILES | Normal melting temperature [°C] |
| --- | --- |
| COc1cc(OC)c(C(=O)O)cc1OC [2,4,5-trimethoxybenzoic acid] | 144.8 ± 1 |
| CC(=O)Nc1ccc(C)cc1 [1-acetamido-4-methylbenzene] | 151 ± 1 |
| CC(=O)Nc1ccccc1C [o-acetotoluide] | 109.6 ± 1 |
| Nc1cccc(O)c1 [3-hydroxybenzenamine] | 123.7 ± 1 |
| Nc1ccccc1O [2-hydroxybenzenamine] | 174.5 ± 1 |
| COc1cc(C(=O)O)cc(OC)c1OC [3,4,5-trimethoxybenzoic acid] | 171.4 ± 1 |
